From patent US20160271160A1, “HCV POLYMERASE INHIBITORS” (MEDIVIR AB, priority 2013, published 2016)
Like-named read-outs stand apart in the source and are kept apart here.

Legend:
[1] = system: genotype 1b HCV replicon; details: from WO 2012/142085; cited from earlier work
[2] = system: HCV type 1b replicon in Huh-7 luc/neo (Huh-Luc) cells; test: HCV replicon assay (Huh-Luc, luciferase readout); format: cell-based; details: Hepatitis C virus, Huh-7, 72 h
Text: The compounds of formula I may be examined for activity in the inhibition of HCV RNA replication in a cellular assay aimed at identifying compounds that inhibit a HCV functional cellular replicating cell line, also known as HCV replicons. A suitable cellular assay is based on a bicistronic expression construct, as described by Lohmann et al. (1999), Science vol. 285 pp. 110-113 with modifications described by Krieger et al. (2001), Journal of Virology 75: 4614-4624, in a multi-target screening strategy.
The assay utilizes the stably transfected cell line Huh-7 luc/neo (hereafter referred to as Huh-Luc). This cell line harbours an RNA encoding a bicistronic expression construct comprising the wild type NS3-NS5B regions of HCV type 1b translated from an Internal Ribosome Entry Site (IRES) from encephalomyocarditis virus (EMCV), preceded by a reporter portion (FfL-luciferase), and a selectable marker portion (neo^R, neomycine phosphotransferase). The construct is bordered by 5′ and 3′ NTRs (non-translated regions) from HCV type 1b. Continued culture of the replicon cells in the presence of G418 (neo^R) is dependent on the replication of the HCV RNA. The stably transfected replicon cells that express HCV RNA, which replicates autonomously and to high levels, encoding inter alia luciferase, are used for screening the antiviral compounds.
The replicon cells are plated in 384 well plates in the presence of the test and control compounds which are added in various concentrations. Following an incubation of three days. HCV replication is measured by assaying luciferase activity (using standard luciferase assay substrates and reagents and a Perkin Elmer ViewLux™ ultraHTS microplate imager). Replicon cells in the control cultures have high luciferase expression in the absence of any inhibitor. The inhibitory activity of a compound on luciferase activity is monitored on the Huh-Luc cells, enabling a dose-response curve for each test compound. EC50 values are then calculated, which value represents the amount of the compound required to decrease the level of detected luciferase activity by 50%, or more specifically, the ability of the genetically linked HCV replicon RNA to replicate, […]

[3] = molecular target: HCV NS5B-21 (UniProt Q9WMX2); test: HCV NS5B-21 SPA enzyme assay; format: biochemical; details: triphosphate tested
Method: It is this triphosphate which is believed to be the antivirally active species. The enzyme assay described here may be used to confirm that compounds of the invention are antivirally active as the 5-triphosphate metabolite.
The enzyme assay measures the inhibitory effect of triphosphate compounds in an HCV NS5B-21 (21-amino acid C-terminally truncated version) SPA assay (scintillation proximity assay). The assay is performed by evaluating the amount of radiolabelled ATP incorporated by HCV NS5B-21 into newly synthesized RNA using an heterogeneous biotinylated RNA template.
To determine IC50 values the compounds are tested at various concentrations in a final volume of 100 μl of reaction mixture. The reaction is stopped by addition of 0.5M EDTA solution. The samples are transferred into flashplates precoated with streptavidin. The incorporated radioactivity is quantified using a scintillation counter (Wallac Microbeta Trilux).
The assay should include enzyme controls (about four, containing 1 μl DMSO instead of inhibitor) and background control containing all ingredients except template.
Compounds are serially diluted in DMSO on a separate dilution plate to 100× the final desired assay concentrations. […]
Incubate the plate over night and read the flash plate in the Microbeta Trilux using the protocol Flash plates H3.
IC50 is determined using Graphpad Prism. […]

[4] = HCV type 1b replicon, Huh-Luc cells, three days incubation, luciferase, read-out: EC50

HCV NS5B-21, sequence (Q9WMX2 2420-3010): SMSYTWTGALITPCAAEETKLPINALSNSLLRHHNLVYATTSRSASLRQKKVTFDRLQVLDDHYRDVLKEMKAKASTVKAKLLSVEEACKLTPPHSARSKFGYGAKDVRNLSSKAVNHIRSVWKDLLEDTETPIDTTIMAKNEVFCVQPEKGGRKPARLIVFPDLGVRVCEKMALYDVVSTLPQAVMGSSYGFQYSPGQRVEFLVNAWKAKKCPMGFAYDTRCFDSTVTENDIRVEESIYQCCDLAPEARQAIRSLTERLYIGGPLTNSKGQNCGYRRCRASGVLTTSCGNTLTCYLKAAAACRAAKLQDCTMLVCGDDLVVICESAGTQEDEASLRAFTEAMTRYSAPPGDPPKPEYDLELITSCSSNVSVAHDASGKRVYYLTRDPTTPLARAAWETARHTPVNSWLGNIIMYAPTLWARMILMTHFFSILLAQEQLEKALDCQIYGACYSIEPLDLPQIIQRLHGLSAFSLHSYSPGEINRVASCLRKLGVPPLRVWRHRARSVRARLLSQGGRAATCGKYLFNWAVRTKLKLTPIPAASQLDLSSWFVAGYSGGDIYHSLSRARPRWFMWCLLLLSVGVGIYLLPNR

For `CC(C)OC(=O)[C@H](C)OP(=O)(OC[C@H]1O[C@@H](n2ccc(N)nc2=O)[C@](C)(Cl)[C@@H]1O)Oc1ccccc1` (stereo partly drawn) [compound 8 of Merck WO2012/142085], the EC50 [1] is listed as 34000 nM.

In the case of `CC1(Cl)C(O)C(CO)OC1n1ccc(N)nc1=O` (stereo not drawn) [corresponding nucleoside], the EC50 [1] is listed as 10000 nM.

In the case of `C[C@H](NP(=O)(OC[C@H]1O[C@@H](n2ccc(=O)[nH]c2=O)C(Cl)(Cl)[C@@H]1O)Oc1ccccc1)C(=O)OC1CCCCC1` (stereo partly drawn) [Example 5, (2S)-Cyclohexyl 2-(((((2R,3R,5R)-4,4-dichloro-5-(2,4-dioxo-3,4-dihydropyrimidin-1(2H)-yl)-3-hydroxytetrahydrofuran-2-yl)methoxy)(phenoxy)phosphoryl)amino)propanoate], the EC50 [2, 4] is reported as 160 nM.

`CC[C@@H](C)OC(=O)[C@H](C)NP(=O)(OC[C@H]1O[C@@H](n2ccc(=O)[nH]c2=O)C(Cl)(Cl)[C@@H]1O)Oc1ccccc1` (stereo partly drawn) [Example 4, (2S)—(R)-Sec-butyl 2-(((((2R,3R,5R)-4,4-dichloro-5-(2,4-dioxo-3,4-dihydropyrimidin-1(2H)-yl)-3-hydroxytetrahydrofuran-2-yl)methoxy)(phenoxy)phosphoryl)amino)propanoate] showed an EC50 [2, 4] of 150 nM.

In the case of `CC[C@H](C)OC(=O)[C@H](C)NP(=O)(OC[C@H]1O[C@@H](n2ccc(=O)[nH]c2=O)C(Cl)(Cl)[C@@H]1O)Oc1ccccc1` (stereo partly drawn) [Example 6, (2S)—(S)-sec-butyl 2-(((((2R,3R,5R)-4,4-dichloro-5-(2,4-dioxo-3,4-dihydropyrimidin-1(2H)-yl)-3-hydroxytetrahydrofuran-2-yl)methoxy)(phenoxy)phosphoryl)amino)propanoate], the EC50 [2, 4] is reported as 100 nM.

`CC(C)OC(=O)[C@H](C)NP(=O)(OC[C@H]1O[C@@H](n2ccc(=O)[nH]c2=O)C(Cl)(Cl)[C@@H]1O)Oc1ccc(C2(C)CC2)cc1` (stereo partly drawn) [Example 9, (2S)-Isopropyl 2-(((((2R,3R,5R)-4,4-dichloro-5-(2,4-dioxo-3,4-dihydropyrimidin-1(2H)-yl)-3-hydroxytetrahydrofuran-2-yl)methoxy)(4-(1-methylcyclopropyl)phenoxy)phosphoryl)-amino)propanoate] gave an EC50 [2, 4] of 360 nM.

`CC(C)OC(=O)[C@H](C)NP(=O)(OC[C@H]1O[C@@H](n2ccc(=O)[nH]c2=O)C(Cl)(Cl)[C@@H]1O)Oc1cccc(C2(C)CC2)c1` (stereo partly drawn) [Example 8, (2S)-Isopropyl 2-(((((2R,3R,5R)-4,4-dichloro-5-(2,4-dioxo-3,4-dihydropyrimidin-1(2H)-yl)-3-hydroxytetrahydrofuran-2-yl)methoxy)(3-(1-methylcyclopropyl)phenoxy)phosphoryl)amino)propanoate] showed an EC50 [2, 4] of 230 nM.

With `O=c1ccn([C@@H]2O[C@H](COP(=O)(O)OP(=O)(O)OP(=O)(O)O)[C@@H](O)C2(Cl)Cl)c(=O)[nH]1` [Example 3, Lithium((2R,3R,5R)-4,4-dichloro-5-(2,4-dioxo-3,4-dihydropyrimidin-1(2H)-yl)-3-hydroxytetrahydrofuran-2-yl)methyl triphosphate] the Ki [3] was 1600 nM.

For `CC(C)OC(=O)[C@@H](C)NP(=O)(OC[C@H]1O[C@@H](n2ccc(=O)[nH]c2=O)C(Cl)(Cl)[C@@H]1O)Oc1ccccc1` (stereo partly drawn) [Example 14, (2R)-Isopropyl 2-(((((2R,3R,5R)-4,4-dichloro-5-(2,4-dioxo-3,4-dihydropyrimidin-1(2H)-yl)-3-hydroxytetrahydrofuran-2-yl)methoxy)(phenoxy)phosphoryl)amino)propanoate], the EC50 [2, 4] was 5700 nM.

Compound `CC(C)OC(=O)[C@H](C)NP(=O)(OC[C@H]1O[C@@H](n2ccc(N)nc2=O)C(Cl)(Cl)[C@@H]1O)Oc1ccccc1` (stereo partly drawn) [Example 12, (2S)-isopropyl 2-(((((2R,3R,5R)-5-(4-Amino-2-oxopyrimidin-1(2H)-yl)-4,4-dichloro-3-hydroxytetrahydrofuran-2-yl)methoxy)(phenoxy)phosphoryl)amino)propanoate] has an EC50 [2, 4] of 170 nM.

Compound `Nc1ccn([C@@H]2O[C@H](COP(=O)(O)OP(=O)(O)OP(=O)(O)O)[C@@H](O)C2(Cl)Cl)c(=O)n1` [Example 17, ((2R,3R,5R)-5-(4-Amino-2-oxopyrimidin-1(2H)-yl)-4,4-dichloro-3-hydroxytetrahydrofuran-2-yl)methyl tetrahydrogen triphosphate] has a Ki [3] of 170 nM.

`Nc1ccn([C@@H]2O[C@H](CO)[C@@H](O)C2(Cl)Cl)c(=O)n1` [Example 11, 4-Amino-1-((2R,4R,5R)-3,3-dichloro-4-hydroxy-5-(hydroxymethyl)tetrahydrofuran-2-yl)pyrimidin-2(1H)-one] gave an EC50 [2, 4] of 13000 nM.

For `CC(C)OC(=O)[C@H](C)NP(=O)(OC[C@H]1O[C@@H](n2ccc(=O)[nH]c2=O)C(Cl)(Cl)[C@@H]1O)Oc1cccc(C2CCC2)c1` (stereo partly drawn) [Example 7, (2S)-isopropyl 2-(((3-cyclobutylphenoxy)(((2R,3R,5R)-4,4-dichloro-5-(2,4-dioxo-3,4-dihydropyrimidin-1(2H)-yl)-3-hydroxytetrahydrofuran-2-yl)methoxy)phosphoryl)amino)propanoate], the EC50 [2, 4] was 220 nM.

For `CC(C)OC(=O)[C@H](C)NP(=S)(OC[C@H]1O[C@@H](n2ccc(=O)[nH]c2=O)C(Cl)(Cl)[C@@H]1O)Oc1ccccc1` (stereo partly drawn) [Example 13, (2S)-Isopropyl 2-(((((2R,3R,5R)-4,4-Dichloro-5-(2,4-dioxo-3,4-dihydropyrimidin-1(2H)-yl)-3-hydroxytetrahydrofuran-2-yl)methoxy)(phenoxy)phosphorothioyl)amino)propanoate], the EC50 [2] was 5400 nM.

In the case of `O=c1ccn([C@@H]2O[C@H](CO)[C@@H](O)C2(Cl)Cl)c(=O)[nH]1` [Example 1, 1-((2R,4R,5R)-3,3-dichloro-4-hydroxy-5-(hydroxymethyl)tetrahydrofuran-2-yl)pyrimidine-2,4(1H,3H)-dione], the EC50 [2, 4] is reported as over 50000 nM.
